# Test results taken from patent US9200008B2 (ASKA PHARMACEUTICAL CO., LTD., priority 2010, dated 2015).
# Tested on: Human prostate cancer cell lines (PC-3 cells)
# Experiment: Measurement of cell death-inducing activity (Test Example 1)
# Type: cell-based
# Settings: PC-3, 48 h, 48 hours after addition, tested at 10, 1, 0.1, 0.025 and 0.00625 μmol/L, qualitative evaluation of 10 fields, read-out: Concentration showing the cell death-inducing activity (cell death-inducing rate not less than 40%)
# Summary of the method: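 PC-3 cells seeded at 1×10^5 cells/well and grown 48 h at 37 °C, 5% CO2, then exposed to compound at 10, 1, 0.1, 0.025 and 0.00625 μmol/L (DMSO control) for a further 48 h. Activity was called where cell death-inducing rate was not less than 40%.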
row,SMILES,minimal effective concentration [µM]
1,COc1cc(Cl)ccc1-c1nc(C)c(NC(=O)OCc2ccc3c(c2)nnn3C)s1 [Example 9-15],0.00625
2,Cc1ccccc1-c1nc(C)c(NC(=O)OCc2ccc3c(c2)nc2n3CCC2)s1 [Example 9-99],1
3,CCc1nc(-c2ccc(C)cc2OC)sc1NC(=O)OCc1ccc2c(c1)nc1n2CCOC1 [Example 9-358],0.025
4,COc1ccc(/C=N/NC(=O)c2sc(-c3cc(C)ccc3C)nc2C)cc1O [Example 23-126],1
5,COc1ccc(CN(C)NC(=O)c2sc(-c3ccccc3C)nc2C)cc1 [Example 16-3],1
6,COc1cccc(/C=N/NC(=O)c2sc(-c3ccc(Cl)cc3OC)nc2C)c1 [Example 23-80],1
7,COc1ccccc1-c1nscc1NC(=O)OCc1ccc2c(c1)ncn2C [Example 45-6],1
8,COc1cc(Cl)ccc1-c1cc(NC(=O)OCc2ccc3c(c2)nc2n3CCC2)n(C)n1 [Example 9-258],0.025
9,COc1ccc(/C=N/NC(=O)c2sc(-c3ccc(Cl)cc3C)nc2C)cc1O [Example 23-46],0.025
10,COc1ccc(/C=N/NC(=O)c2sc(-c3scnc3C)nc2C)cc1O [Example 23-137],1
11,COc1ccc(/C=N/NC(=O)c2cc(-c3ccccc3OC)ns2)cc1O [Example 27-7],0.1
12,COc1cc(Cl)ccc1-c1cc(COC(=O)Nc2ccc3c(c2)ncn3C)nn1C [Example 13-137],10
13,CCn1cnc2cc(NC(=O)OCc3sc(-c4ccc(F)cc4C)nc3C)ccc21 [Example 13-16],0.025
14,COc1ccc(/C=N/NC(=O)c2sc(-c3ccc(Cl)cc3)nc2C2CC2)cc1O [Example 23-101],10
15,Cc1ccc(-c2nc(C)c(NC(=O)OCc3ccc4c(c3)nc3n4CCCCC3)s2)c(C)c1 [Example 9-124],10
16,COc1ccccc1-c1cc(COC(=O)Nc2ccc3c(c2)nc2n3CCC2)n(C)n1 [Example 13-105],0.025
17,"Cc1cc(/C=N/NC(=O)c2snc(-c3ccc(Cl)cc3Cl)c2N)cc(C)c1O [Example 27-15, 4-Amino-3-(2,4-dichlorophenyl)isothiazole-5-carboxylic acid[1-(4-hydroxy-3,5-dimethylphenyl)methylidene]hydrazide]",10
18,CCn1cc2ccc(COC(=O)Nc3cc(-c4ccc(C)cc4C)nn3CC)cc2n1 [Example 9-305],1
19,COc1ccc(-c2nc(-c3ccccc3C)sc2C(=O)N/N=C/c2cc(C)c(O)c(C)c2)cc1 [Example 23-162],1
20,CCCOc1ccccc1-c1nc(C)c(C(=O)N/N=C/c2ccc(OC)c(O)c2)s1 [Example 23-48],0.1
21,COc1ccccc1-c1nc(C)c(NC(=O)OCc2ccc3c(c2)nc2n3CCCC2)s1 [Example 9-110],1
22,COc1cc(Cl)ccc1-c1cc(COC(=O)Nc2ccc3c(c2)nc2n3CCCC2)n(C)n1 [Example 13-118],0.00625
23,CCc1ccccc1-c1nc(C)c(NC(=O)OCc2ccc3c(cnn3C)c2)s1 [Example 9-125],1
24,CCCc1nc(-c2ccc(Cl)cc2)sc1C(=O)N/N=C/c1ccc(OC)c(O)c1 [Example 23-102],10
25,Cc1cc(/C=N/NC(=O)c2sc(-c3ccc(Cl)cc3)nc2C)ccc1O [Example 23-11],10

row,SMILES,minimal effective concentration [µM]
1,COc1cc(C)ccc1-c1cc(COC(=O)Nc2ccc3c(c2)nc2n3CCCC2)n(C)n1 [Example 13-120],0.025
2,COc1ccc(CN(C)NC(=O)c2sc(-c3ccc(Cl)cc3)nc2C)cc1 [Example 16-2],10
3,COc1cc(Cl)ccc1-c1nc(C)c(C(=O)N/N=C/c2ccc(O)c(C)c2)s1 [Example 23-76],1
4,COc1ccccc1-c1nc(C)c(NC(=O)OCc2ccc3c(c2)nc2n3CCC2)s1 [Example 9-101],0.1
5,COc1ccccc1-c1nc(C)c(C(=O)N/N=C/c2ccc3ncccc3c2)s1 [Example 23-97],0.1
6,COc1ccc(/C=N/NC(=O)c2sc(-c3cccc(OC)c3OC)nc2C)cc1O [Example 23-24],10
7,CCn1nc(-c2ccc(F)cc2OC)cc1COC(=O)Nc1ccc2c(cnn2C)c1 [Example 13-126],10
8,CCc1ccccc1-c1nc(C)c(NC(=O)OCc2ccc3nn(C)cc3c2)s1 [Example 9-142],0.1
9,COc1cc(Cl)ccc1-c1nn(C)c(NC(=O)OCc2ccc3c(c2)ncn3C)c1C [Example 9-311],10
10,CCN(Cc1ccc(OC)cc1)NC(=O)c1sc(-c2ccc(Cl)cc2C)nc1C [Example 16-15],1
11,CCn1c(C)nc2cc(COC(=O)Nc3sc(-c4ccc(C)cc4C)nc3C)ccc21 [Example 9-88],0.1
12,COc1cc(Cl)ccc1-c1nc(C)c(C(=O)N/N=C/c2ccc(O)cc2)s1 [Example 23-75],1
13,CCCCCCc1nc(-c2ccc(Cl)cc2)sc1C(=O)N/N=C/c1ccc(OC)c(O)c1 [Example 23-30],10
14,CCc1nc(-c2ccc(F)cc2C)sc1NC(=O)OCc1ccc2c(c1)nc1n2CCCC1 [Example 9-355],1
15,COc1cc(C)ccc1-c1cc(NC(=O)OCc2ccc3c(c2)nc2n3CCC2)n(C)n1 [Example 9-261],0.025
16,"Cc1cc(Cl)ccc1-c1nc(C)c(NC(=O)OCc2ccc3c(c2)nc2n3CCSC2)s1 [Example 40-3, [2-(4-Chloro-2-methylphenyl)-4-methylthiazol-5-yl]carbamic acid 3,4-dihydro-1H-2-thia-4a,9-diazafluoren-7-ylmethyl ester]",0.1
17,COc1cc(Cl)ccc1-c1nc(C)c(COC(=O)Nc2ccc3c(cnn3C)c2)s1 [Example 13-41],1
18,CCn1nc(-c2ccc(C)cc2C)cc1NC(=O)OCc1ccc2cn(C)nc2c1 [Example 9-303],1
19,COc1cc(F)ccc1-c1nc(C)c(NC(=O)OCc2ccc3c(c2)nc2n3CCOC2)s1 [Example 9-92],0.00625
20,CCc1ccccc1-c1nc(C)c(NC(=O)OCc2ccc3c(c2)nc(C)n3CC)s1 [Example 9-84],1
21,CCc1nc(-c2ccccc2OC)sc1NC(=O)OCc1ccc2c(c1)ncn2CC [Example 9-162],0.1
22,CCn1nc(-c2ccc(F)cc2OC)cc1COC(=O)Nc1ccc2c(c1)ncn2C [Example 13-81],0.025
23,COc1cc(Cl)ccc1-c1nc(C)c(NC(=O)OCc2ccc3c(c2)CCO3)s1 [Example 9-7],10
24,COc1cc(C)ccc1-c1nc(C)c(NC(=O)OCc2ccc3ncsc3c2)s1 [Example 36-2],1
25,"COc1ccc(/C=N/NC(=O)c2cc(-c3ccc(Cl)cc3)c[nH]2)cc1O [Example 24-2, 4-(4-Chlorophenyl)-1H-pyrrole-2-carboxylic acid [1-(3-hydroxy-4-methoxyphenyl)methylidene]hydrazide]",1
